What all share (assay type): cell-based, human
Series [1] concerns U266BL multiple myeloma cells. Kind of series: MTT cytotoxicity assay of oxovanadium(IV) compounds, U266BL. Particulars: 48 hr. In a few lines: (§1)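 MTT read-out at 540 nm (reference 690 nm), converted to live cell number with per-line standard curves, then % survival versus untreated control. Cells were treated 48 h at 37° C with 0.1–250 μM compound. IC50 obtained by non-linear regression.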

Series [2] deals with NTD1 testicular cancer cells. Briefly: Cytotoxic activity of oxovanadium(IV) compounds, NTD1. The following applies: read-out: Cytotoxic Activity NTD1. In a few lines: as §1
The test system of the next series is MOLT-3 cells. Briefly: MTT cytotoxicity assay of oxovanadium(IV) compounds, MOLT-3. The following applies: 48 hr. In a few lines: as §1
Series [3] deals with HS-SULTAN multiple myeloma cells. Briefly: MTT cytotoxicity assay of oxovanadium(IV) compounds, HS-SULTAN. The following applies: 48 hr. In a few lines: as §1
(Tetrazolium assays rely on reduction of a dye to a coloured formazan, in cell work by metabolically active cells.)

The subject of another series is NALM-6 cells. Briefly: In situ detection of apoptosis, confocal microscopy, NALM-6. The following applies: 48 hours after treatment. The procedure:
(§2) Exponentially growing cells were seeded in 6-well tissue culture plates and incubated with fresh medium containing compounds. […] The cells were fixed in 2% paraformaldehyde, washed with PBS and pelleted by centrifuging the tubes at 1000 rpm for 5 min. Cells pellets were resuspended in 50 μl of PBS, transferred to superforst plus slides and allowed to attach for 15 min. The cells were permeabilized with 0.1% triton X-100 in 0.1% citrate buffer and incubated for 1 hr at 37° C. with the reaction mixture containing terminal deoxynucleotidyl transferase (TdT) and fluorescein isothiocyanate (FITC)-conjugated dUTP. Cells were washed with PBS to remove unbound reagents and the coverslips were mounted onto slides with Vectashield containing propidium iodide (Vector Labs, Burlingame, Calif.) and slides were viewed with a confocal laser scanning microscope. […] In control reactions, the TdT enzyme was omitted from the reaction mixture.

Series [4] has as its system HS445 Hodgkin's lymphoma cells. Kind of series: MTT cytotoxicity assay of oxovanadium(IV) compounds, HS445. Particulars: 48 hr. An outline of the steps:
as §1

Another series concerns NALM-6 leukemia cells. Kind of series: Mitochondrial transmembrane potential, JC-1 staining, flow cytometry. The procedure:
To measure the changes in mitochondria, NALM-6 cells were incubated with compound 29 at concentrations ranging from 0.1 μM to 1 μM for 24 hr, 48 hr, 72 hr or 96 hr, stained with specific fluorescent dyes and analyzed with flow cytometer. Mitochondrial membrane potential (ΔΨm) was measured using two dyes including a lipophollic cation 5,5′,6,6′-tetrachloro-1,1′,3,3′-tetraethlybenzimidazolylcarbocyanine iodide (JC-1; Molecular probes, Eugene, Oreg.) and a cyanine dye, 1,1′,3,3,3′,3′-hexamethylindodicarbocyanine iodide [DiIC1(5); Molecular probes] as earlier described (22). JC-1 can enter the cells, and selectively mitochondria, and has been used to assess ΔΨm in a variety of studies (23,24). JC-1 is a monomer at 527 nm after being excited at 490 nm; with polarization of ΔΨm, J-aggregates are formed that shift emission to 590 nm (23, 24). This can be detected on a flow cytometer by assessing the green signal (at 527 nm) and green-orange signal (at 590 nm) simultaneously, creating an index of the number of cells polarized and depolarized mitochondria. The treated and control cells were washed and plated in a 6-well plate at 1×10^6 cells in fresh medium. JC-1 was added at a concentration of 10 μg/ml, and cells were incubated for 10 min in the dark at room temp. Cells were then washed twice with ice-cold PBS and immediately analyzed using Becton Dickinson (San Jose, Calif.) Calibur flow cytometer. At least 2×10^3 cells were analyzed to determine the percentage of cells with polarized and depolarized mitochondria. DiIC1(5), a cyanine dye is amphioatheic and cationic that concentrate in energized mitochondria and has been used in a variety of studies to measure the mitochondrial membrane potential (25–27). NALM-6 cells were stained with DiIC1(5) at 40 nM concentration for 30 min in the dark as described for JC-1. The cells were analyzed using Vantage Becton Dickinson cell sorter equipped with HeNe laser with excitation at 635 nm and the fluorescence was collected at 666 nm.
(In general: In flow cytometry, cells or beads pass a laser one at a time.)

In series [5] the test system is 64cp5 testicular cancer cells. Kind of series: Cytotoxic activity of oxovanadium(IV) compounds, 64cp5. Particulars: read-out: Cytotoxic Activity 64cp5. In a few lines: as §1
A further series has as its system HS-SULTAN cells. Kind of series: In situ detection of apoptosis, confocal microscopy, HS-SULTAN. The following applies: 48 hours after treatment. On the procedure: as §2
For series [6], the system named is ARH77 multiple myeloma cells. Briefly: MTT cytotoxicity assay of oxovanadium(IV) compounds, ARH77. The following applies: 48 hr.

Like-named read-outs stand apart in the source and are kept apart here.

Regarding “bis(4,7-dimethyl-1,10-phenanthroline)sulfatooxovanadium(IV) [Compound 29]”, the IC50 in [1] was 500 ± 20 nM; in [2], 10800 nM; in the series with MOLT-3 cells it was 190 ± 10 nM; in series [3], 800 ± 50 nM; in series [4], 500 ± 80 nM; in series [5], 750 nM. Besides, in [6], the IC50 is 810 ± 900 nM. Also, in the series with NALM-6 cells, the “apoptotic nuclei (FITC-dUTP / propidium iodide), NALM-6” value is recorded as “many apoptotic yellow nuclei”. Moreover, in the series on NALM-6 leukemia cells (500 nM, 48 hr (vehicle 98.6%)), the “fraction of JC-1 red/orange fluorescence-positive cells, 48 hr” value was determined as 56.1%. In addition, in the series with NALM-6 leukemia cells (500 nM, 72 hr (vehicle 98.6%)), the “fraction of JC-1 red/orange fluorescence-positive cells, 72 hr” value was 8.4%. Also, the EC50 came to 4200 nM in the series on NALM-6 leukemia cells (24 hr treatment, read-out: average EC50 for depolarization of mitochondria (JC-1 red/orange fluorescence), 24 hr) and 500 nM with NALM-6 leukemia cells (48 hr treatment, read-out: average EC50 for depolarization of mitochondria (JC-1 red/orange fluorescence), 48 hr). In addition, in the series with HS-SULTAN cells, the “apoptotic nuclei (FITC-dUTP / propidium iodide), HS-SULTAN” value is “many apoptotic yellow nuclei”.
